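Protocol summary: plate cells (96-well), add compound at 5 concentrations, incubate 48 h, interpolate endpoints linearly. GI50 is the concentration that inhibits growth by half. TGI denotes the concentration required for complete inhibition of growth.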
What was measured:
Assay in all cases: NCI tumour cell line growth inhibition, 48 h
A498 renal = tested on: A498 renal
A549 NSCLC = tested on: A549 NSCLC
ACHN renal = tested on: ACHN renal
HL-60(TB) leukemia = tested on: HL-60(TB) leukemia
IGROV1 ovarian = tested on: IGROV1 ovarian
K-562 leukemia = tested on: K-562 leukemia
MOLT-4 leukemia = tested on: MOLT-4 leukemia
RXF 393 renal = tested on: RXF 393 renal
OVCAR-4 ovarian = tested on: OVCAR-4 ovarian
HS 578T breast = tested on: HS 578T breast

Row | SMILES | TGI (A498 renal) [µM] | TGI (A549 NSCLC) [µM] | TGI (ACHN renal) [µM] | TGI (HL-60(TB) leukemia) [µM] | TGI (IGROV1 ovarian) [µM] | TGI (K-562 leukemia) [µM] | TGI (MOLT-4 leukemia) [µM] | TGI (RXF 393 renal) [µM] | GI50 (A498 renal) [µM] | GI50 (A549 NSCLC) [µM] | GI50 (ACHN renal) [µM] | GI50 (HL-60(TB) leukemia) [µM] | GI50 (IGROV1 ovarian) [µM] | GI50 (K-562 leukemia) [µM] | GI50 (MOLT-4 leukemia) [µM] | GI50 (OVCAR-4 ovarian) [µM] | TGI (OVCAR-4 ovarian) [µM] | GI50 (RXF 393 renal) [µM] | GI50 (HS 578T breast) [µM] | TGI (HS 578T breast) [µM]
1 | C/C(CC(=O)Nc1ccc(NC(=O)/C(C)=N/NS(=O)(=O)c2ccc(C)cc2)cc1)=N\NS(=O)(=O)c1ccc(C)cc1 | > 100 | > 100 | > 100 | > 100 | > 100 | > 100 | > 100 | > 100 |  |  |  |  |  |  |  |  |  |  |  | 
2 | CC(=O)[CH-]C(=O)c1ccccc1.CC(=O)[CH-]C(=O)c1ccccc1.CC[O-].O=C1C=C([O-])C(=O)c2ccccc21.[Ti+4] | > 100 | > 100 | > 100 | 80 | > 100 | > 100 | > 100 | > 100 | 81.1 | 46.3 | 66.5 | 16.1 | > 100 | > 100 | 58.3 | > 100 | > 100 | > 100 |  | 
3 | O/N=C1/C(=C/c2ccc(Cl)cc2)CCCC1C(NO)c1ccc(Cl)cc1 (stereo not given) | 38.9 | 57.4 | > 100 | 43.3 | > 100 | 62.2 | 37.2 | 29.6 |  |  |  |  |  |  |  |  | 32.8 |  |  | 
4 | CCc1c(-c2coc(CC/C(C)=C/c3ccccc3)n2)oc(OC)c(C)c1=O | > 100 | > 100 | > 71.4 | 97.9 | > 100 | > 100 | > 100 |  |  |  |  |  |  |  |  |  | > 55.5 |  |  | 
5 | Cn1c(=O)c2[nH]cnc2n(CC(=O)O)c1=O | > 100 | > 100 | > 100 |  | > 100 | > 100 | > 100 |  |  |  |  |  |  |  |  |  |  |  |  | 
6 | N#CNc1nc(C(=O)Nc2ccc(Cl)cc2)cc(-c2ccccc2)n1 | > 100 | > 100 | > 100 | > 100 | > 100 | > 100 | > 100 | > 100 |  |  |  |  |  |  |  |  | > 100 |  |  | 
7 | COC(=O)C1CCC(N2C(=O)CCC2C(=O)OC)=N1 (stereo not given) | > 100 | > 100 | > 100 | > 100 | > 100 | > 100 | > 100 |  |  |  |  |  |  |  |  |  | > 100 |  |  | 
8 | O=c1cc(-c2ccc[nH]2)[nH]c2cc3c(cc12)OCO3 | 74.3 | > 100 | > 100 | 83.6 | > 100 | > 100 | > 100 | 47 |  |  |  |  |  |  |  |  | 56 | 15.9 |  | 
9 | COc1ccc2nc(C3=CN(C4OC(CO)C(O)C(O)C4O)C4C=CC=CC34)sc2c1 (stereo not given) |  | > 100 | 46.1 |  | 34.8 | 87.7 | 90.8 | > 100 |  | 28.3 | 19 |  | 13.5 | 28.5 | 21.9 | > 100 | > 100 | 34.6 | 34.4 | 94.4
10 | Cc1cccc(NC(=O)Cc2nc3ccccc3s2)c1C | > 100 | > 100 | > 100 | > 100 | > 100 | > 100 | > 100 | > 100 |  |  |  |  |  |  |  |  | > 100 |  |  | 
11 | O=C1c2c(O)cccc2C(C(=O)CCCC(=O)C2c3cccc(O)c3C(=O)c3c(O)cccc32)c2cccc(O)c21 | 3.66 | 1.64 | 1.02 |  | 2.41 | 4.86 | 17.5 |  |  |  |  |  |  |  |  |  | 0.82 |  |  | 0.202
12 | COc1cc(C(=C2SCCS2)c2nccc3cc(OC)c(OC)cc23)c([N+](=O)[O-])cc1OC | > 100 | > 100 | > 100 | 94.6 | > 100 | > 100 | > 100 | > 100 |  |  |  |  |  |  |  |  |  |  |  | 
13 | O=C(Nc1ccccc1)OCc1nc2c([nH]1)C(=O)C=CC2=O | 30.1 | 31.9 | 25.2 | 15.2 | 30.7 | 7.36 | 6.71 | 23 |  |  |  |  |  |  |  |  | 28 |  |  | 
14 | CC(=O)OC1C/C(C)=C/[C@H](O)CC(C)/C=C/[C@@]2(C)CCC(C(C)(C)O)C12 (stereo not given in full) | > 100 | > 100 | > 100 | > 100 | > 100 | > 100 | > 100 | > 100 |  |  |  |  |  |  |  |  | > 100 |  |  | 
15 | CCc1ccccc1NC(=O)C1=C(C)NC(C)=C(C(=O)Nc2ccccc2CC)C1c1ccc(NC(C)=O)cc1 |  | > 100 | > 100 | 39.5 | > 100 | 77.9 | 54.4 | 65 |  |  |  |  |  |  |  |  | > 100 |  |  | 
16 | C=CC1=C(C)C(Cc2[nH]c(/C=c3\[nH]/c(=C/C4=NC(=O)C(C)/C4=C\C)c(C)c3CCC(=O)O)c(CCC(=O)OC)c2C)NC1=O (stereo not given) | > 100 | > 100 | 77.2 | > 100 | 42.4 | 61.9 | > 100 | 44 | > 100 | 40.2 | 26.3 | 39.8 | 18.8 | 25.7 | 34.1 |  |  | 21.4 |  | 
17 | C=C(C)C(=O)N1c2ccc(OC)cc2CC1C(=O)OCC (stereo not given) | > 100 | > 100 | > 100 |  | > 100 | > 100 | > 100 |  |  |  |  |  |  |  |  |  | > 100 |  |  | > 100
18 | [N-]=[N+]=NC(c1cn(C2CC(O)C(CO)O2)c(=O)[nH]c1=O)C(I)I (stereo not given) | > 100 | > 100 | > 100 | > 100 | > 100 | > 100 | > 100 | > 100 |  |  |  |  |  |  |  |  | > 100 |  |  | 
19 | COc1ccc(CC(C#N)c2cc(OC)c(OC)c(OC)c2)cc1 (stereo not given) |  | > 100 | > 91.6 | 0.125 | > 100 | > 47.4 | > 100 |  |  |  |  |  |  |  |  |  | > 100 |  |  | > 100
20 | C=C(CN(CCN1CCOCC1)CC(=C)c1ccc(C(=O)Nc2ccccc2N)cc1)c1ccc(C(=O)Nc2ccccc2N)cc1 |  | 24.9 | 13.3 | > 50 | 29.1 | > 50 |  | 23.6 |  | 9.38 | 6.04 | 13 | 7.37 | 28.1 |  | 10.5 | > 50 | 11.9 | 5.55 | 42.8
